Reference: PubChem BioAssay (NCI)
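Test compounds were applied to cells in 96-well plates for 48 hours at 5 doses. At the TGI there is no net growth.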 Where a SMILES comes first, the peptide text is derived from it. The star is where a group is joined. Boc = CC(C)(C)OC(=O)*

Columns and labels:
Experiment in all cases: NCI anticancer screen, dose series, 48 h
NCI-H522 lung = tested on: NCI-H522 lung
IGROV1 ovarian = tested on: IGROV1 ovarian
SK-MEL-5 melanoma = tested on: SK-MEL-5 melanoma
CCRF-CEM leukemia = tested on: CCRF-CEM leukemia
MALME-3M melanoma = tested on: MALME-3M melanoma
HCT-15 colon = tested on: HCT-15 colon
MCF7 breast = tested on: MCF7 breast
TK-10 renal = tested on: TK-10 renal
SNB-19 CNS = tested on: SNB-19 CNS
SF-268 CNS = tested on: SF-268 CNS
OVCAR-3 ovarian = tested on: OVCAR-3 ovarian
OVCAR-4 ovarian = tested on: OVCAR-4 ovarian
HL-60(TB) leukemia = tested on: HL-60(TB) leukemia
SK-MEL-28 melanoma = tested on: SK-MEL-28 melanoma
MDA-N = tested on: MDA-N
K-562 leukemia = tested on: K-562 leukemia
SW-620 colon = tested on: SW-620 colon
MOLT-4 leukemia = tested on: MOLT-4 leukemia
HCT-116 colon = tested on: HCT-116 colon
OVCAR-8 ovarian = tested on: OVCAR-8 ovarian
PC-3 prostate = tested on: PC-3 prostate
HOP-62 NSCLC = tested on: HOP-62 NSCLC
M14 melanoma = tested on: M14 melanoma
CAKI-1 renal = tested on: CAKI-1 renal
COLO 205 colon = tested on: COLO 205 colon
ACHN renal = tested on: ACHN renal
UACC-257 melanoma = tested on: UACC-257 melanoma
SF-295 CNS = tested on: SF-295 CNS
LOX IMVI melanoma = tested on: LOX IMVI melanoma
A549 NSCLC = tested on: A549 NSCLC
MDA-MB-435 = tested on: MDA-MB-435
HCC-2998 colon = tested on: HCC-2998 colon
MDA-MB-231 breast = tested on: MDA-MB-231 breast
RPMI-8226 leukemia = tested on: RPMI-8226 leukemia
NCI-H460 lung = tested on: NCI-H460 lung
T-47D breast = tested on: T-47D breast
SR leukemia = tested on: SR leukemia
UACC-62 melanoma = tested on: UACC-62 melanoma
EKVX NSCLC = tested on: EKVX NSCLC
DU-145 prostate = tested on: DU-145 prostate
HT29 colon = tested on: HT29 colon
SK-OV-3 ovarian = tested on: SK-OV-3 ovarian
HOP-92 NSCLC = tested on: HOP-92 NSCLC
A498 renal = tested on: A498 renal
U251 CNS = tested on: U251 CNS
SNB-75 CNS = tested on: SNB-75 CNS
KM12 colon = tested on: KM12 colon
SN12C renal = tested on: SN12C renal
HS 578T breast = tested on: HS 578T breast
UO-31 renal = tested on: UO-31 renal
786-0 renal = tested on: 786-0 renal
NCI-H23 lung = tested on: NCI-H23 lung
OVCAR-5 ovarian = tested on: OVCAR-5 ovarian
NCI-H226 lung = tested on: NCI-H226 lung
NCI/ADR-RES ovarian = tested on: NCI/ADR-RES ovarian
RXF 393 renal = tested on: RXF 393 renal
SK-MEL-2 melanoma = tested on: SK-MEL-2 melanoma
SF-539 CNS = tested on: SF-539 CNS

CC(C)(C)OC(=O)NC(Cc1ccccc1)C(=O)N1CCCC1C(N)=O (stereo not drawn) (Boc-Phe-Pro-NH2; configuration not given here)
TGI (NCI-H522 lung): > 100 µM
TGI (IGROV1 ovarian): > 100 µM
TGI (SK-MEL-5 melanoma): > 100 µM
TGI (CCRF-CEM leukemia): > 100 µM
TGI (MALME-3M melanoma): > 100 µM
TGI (HCT-15 colon): > 100 µM
TGI (MCF7 breast): > 100 µM
TGI (TK-10 renal): > 100 µM
TGI (SNB-19 CNS): > 100 µM
TGI (SF-268 CNS): > 100 µM
TGI (OVCAR-3 ovarian): > 100 µM
TGI (OVCAR-4 ovarian): > 100 µM
TGI (HL-60(TB) leukemia): > 100 µM
TGI (SK-MEL-28 melanoma): > 100 µM
TGI (MDA-N): > 100 µM
TGI (K-562 leukemia): > 100 µM
TGI (SW-620 colon): > 100 µM
TGI (MOLT-4 leukemia): > 100 µM
TGI (HCT-116 colon): > 100 µM
TGI (OVCAR-8 ovarian): > 100 µM
TGI (PC-3 prostate): > 100 µM
TGI (HOP-62 NSCLC): > 100 µM
TGI (M14 melanoma): > 100 µM
TGI (CAKI-1 renal): > 100 µM
TGI (COLO 205 colon): > 100 µM
TGI (ACHN renal): > 100 µM
TGI (UACC-257 melanoma): > 100 µM
TGI (SF-295 CNS): > 100 µM
TGI (LOX IMVI melanoma): > 100 µM
TGI (A549 NSCLC): > 100 µM
TGI (MDA-MB-435): > 100 µM
TGI (HCC-2998 colon): > 100 µM
TGI (MDA-MB-231 breast): > 100 µM
TGI (RPMI-8226 leukemia): > 100 µM
TGI (NCI-H460 lung): > 100 µM
TGI (T-47D breast): > 100 µM
TGI (SR leukemia): > 100 µM
TGI (UACC-62 melanoma): > 100 µM
TGI (EKVX NSCLC): > 100 µM
TGI (DU-145 prostate): > 100 µM
TGI (HT29 colon): > 100 µM
TGI (SK-OV-3 ovarian): > 100 µM
TGI (HOP-92 NSCLC): 74 µM

Cc1nc2ccc(Cl)cc2c(Cl)c1CCCl
TGI (NCI-H522 lung): > 100 µM
TGI (A498 renal): > 100 µM
TGI (IGROV1 ovarian): > 100 µM
TGI (SK-MEL-5 melanoma): > 100 µM
TGI (CCRF-CEM leukemia): > 100 µM
TGI (U251 CNS): > 100 µM
TGI (SNB-75 CNS): > 100 µM
TGI (MALME-3M melanoma): > 100 µM
TGI (HCT-15 colon): > 100 µM
TGI (MCF7 breast): 99.2 µM
TGI (TK-10 renal): > 100 µM
TGI (SNB-19 CNS): > 100 µM
TGI (SF-268 CNS): > 100 µM
TGI (OVCAR-3 ovarian): > 100 µM
TGI (HL-60(TB) leukemia): > 100 µM
TGI (SK-MEL-28 melanoma): > 100 µM
TGI (KM12 colon): > 100 µM
TGI (MDA-N): 40.9 µM
TGI (K-562 leukemia): > 100 µM
TGI (SW-620 colon): > 100 µM
TGI (SN12C renal): > 100 µM
TGI (MOLT-4 leukemia): > 100 µM
TGI (HCT-116 colon): > 100 µM
TGI (HS 578T breast): > 100 µM
TGI (OVCAR-8 ovarian): > 100 µM
TGI (PC-3 prostate): > 100 µM
TGI (UO-31 renal): > 100 µM
TGI (HOP-62 NSCLC): > 100 µM
TGI (786-0 renal): > 100 µM
TGI (M14 melanoma): > 100 µM
TGI (CAKI-1 renal): > 100 µM
TGI (COLO 205 colon): > 100 µM
TGI (ACHN renal): > 100 µM
TGI (UACC-257 melanoma): > 100 µM
TGI (SF-295 CNS): > 100 µM
TGI (LOX IMVI melanoma): > 100 µM
TGI (NCI-H23 lung): > 100 µM
TGI (A549 NSCLC): > 100 µM
TGI (OVCAR-5 ovarian): > 100 µM
TGI (MDA-MB-435): 31.2 µM
TGI (HCC-2998 colon): > 100 µM
TGI (MDA-MB-231 breast): > 100 µM
TGI (NCI-H226 lung): > 100 µM
TGI (RPMI-8226 leukemia): > 100 µM
TGI (NCI-H460 lung): > 100 µM
TGI (NCI/ADR-RES ovarian): > 100 µM
TGI (RXF 393 renal): > 100 µM
TGI (SR leukemia): > 100 µM
TGI (UACC-62 melanoma): > 100 µM
TGI (EKVX NSCLC): > 100 µM
TGI (SK-MEL-2 melanoma): > 100 µM
TGI (DU-145 prostate): > 100 µM
TGI (HT29 colon): > 100 µM
TGI (SK-OV-3 ovarian): > 100 µM
TGI (HOP-92 NSCLC): 94.2 µM
TGI (SF-539 CNS): > 100 µM

Nc1nc(N)c2nc(CNc3ccc(C(=O)NC(CCC(=O)O)C(=O)O)cc3F)cnc2n1 (stereo not given)
TGI (NCI-H522 lung): > 100 µM
TGI (IGROV1 ovarian): > 100 µM
TGI (SK-MEL-5 melanoma): > 100 µM
TGI (CCRF-CEM leukemia): > 100 µM
TGI (U251 CNS): > 100 µM
TGI (SNB-75 CNS): > 100 µM
TGI (MALME-3M melanoma): > 100 µM
TGI (HCT-15 colon): > 100 µM
TGI (MCF7 breast): > 100 µM
TGI (TK-10 renal): > 100 µM
TGI (SNB-19 CNS): > 100 µM
TGI (SF-268 CNS): > 100 µM
TGI (OVCAR-3 ovarian): > 100 µM
TGI (OVCAR-4 ovarian): > 100 µM
TGI (SK-MEL-28 melanoma): > 100 µM
TGI (KM12 colon): > 100 µM
TGI (MDA-N): > 100 µM
TGI (K-562 leukemia): > 76.7 µM
TGI (SW-620 colon): > 100 µM
TGI (SN12C renal): > 100 µM
TGI (HCT-116 colon): > 100 µM
TGI (HS 578T breast): > 100 µM
TGI (OVCAR-8 ovarian): > 100 µM
TGI (PC-3 prostate): > 100 µM
TGI (HOP-62 NSCLC): > 100 µM
TGI (786-0 renal): > 100 µM
TGI (M14 melanoma): > 100 µM
TGI (CAKI-1 renal): > 100 µM
TGI (COLO 205 colon): > 100 µM
TGI (ACHN renal): > 100 µM
TGI (UACC-257 melanoma): > 100 µM
TGI (SF-295 CNS): > 100 µM
TGI (LOX IMVI melanoma): > 100 µM
TGI (NCI-H23 lung): > 100 µM
TGI (A549 NSCLC): > 100 µM
TGI (OVCAR-5 ovarian): > 100 µM
TGI (MDA-MB-435): > 100 µM
TGI (HCC-2998 colon): > 100 µM
TGI (MDA-MB-231 breast): > 100 µM
TGI (NCI-H226 lung): > 100 µM
TGI (RPMI-8226 leukemia): 67.2 µM
TGI (NCI-H460 lung): > 100 µM
TGI (NCI/ADR-RES ovarian): > 100 µM
TGI (T-47D breast): > 100 µM
TGI (RXF 393 renal): > 100 µM
TGI (UACC-62 melanoma): > 100 µM
TGI (EKVX NSCLC): > 100 µM
TGI (SK-MEL-2 melanoma): > 100 µM
TGI (DU-145 prostate): > 100 µM
TGI (HT29 colon): > 100 µM
TGI (SK-OV-3 ovarian): > 100 µM
